# Laboratory results taken from the supplement of paper PMC10307832.
# Compound: COc1cc([C@@H]2c3cc4c(cc3[C@@H](O[C@@H]3O[C@@H]5CO[C@@H](C)O[C@H]5[C@H](O)[C@H]3O)[C@H]3COC(=O)[C@H]23)OCO4)cc(OC)c1O [Etoposide] + O=C(CCCCCCC(=O)Nc1ccccc1)NO [Vorinostat] (partner 1 µM)
# Experiment: relative viability (nuclei count vs DMSO), 5 days (fraction); higher = more cells survive
# Conditions: first compound 0.01 µM
# Procedure, shortened: (§1)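 Lung cancer cell lines were seeded in 1536-well plates and dosed by pin tool the next day, with either a single drug or a fixed anchor-drug dose combined with five library-drug doses (not always all listed) spaced in √10 steps. Five days later, one step fixed the cells and stained their nuclei (final 0.05% Triton X-100, 1% formaldehyde, 1 ug/ml Hoechst), and nuclei were counted on 4× images. Relative viability is the nuclei count in treated wells divided by the count in vehicle wells, and each value is the median of duplicate plates.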
row,Cell Line,relative viability
1,LK-2,0.317
2,NCI-H2126,0.707
3,NCI-H2342,0.788
4,SK-MES-1,1.11
5,H3255,0.788
6,COR-L23,0.48
7,IA-LM,0.701
8,NCI-H2170,0.782
9,HCC-44,1.12
10,SW 900,0.413
11,NCI-H727,1.16
12,NCI-H1395,0.659
13,NCI-H1944,0.532
14,ABC-1,1.07
15,NCI-H358,0.663

# Same assay, conditions: first compound 0.03162 µM
row,Cell Line,relative viability
1,NCI-H522,0.981
2,NCI-H838,0.67
3,NCI-H1650,0.518
4,NCI-H1993,0.683
5,NCI-H2087,0.975
6,PC-14,0.89
7,LCLC-103H,0.94
8,NCI-H596,0.672
9,NCI-H2228,0.668
10,EMC-BAC-2,0.428
11,NCI-H2085,0.809
12,HCC-366,0.386
13,NCI-H1666,0.933
14,NCI-H647,0.631
15,LK-2,0.374
16,NCI-H2126,0.911

row,Cell Line,relative viability
1,NCI-H2342,0.788
2,SK-MES-1,1.2
3,H3255,0.774
4,COR-L23,0.487
5,IA-LM,1
6,NCI-H2170,0.846
7,HCC-44,1.04
8,SW 900,0.468
9,NCI-H1648,0.58
10,NCI-H727,1.47
11,NCI-H1395,0.905
12,NCI-H1793,0.934
13,NCI-H1944,0.532
14,ABC-1,1.57
15,NCI-H358,0.508

# Same assay, conditions: first compound 0.1 µM
row,Cell Line,relative viability
1,NCI-H522,0.774
2,NCI-H838,0.69
3,NCI-H1650,0.518
4,NCI-H1993,0.507
5,NCI-H2087,0.641
6,PC-14,0.558
7,LCLC-103H,0.663
8,NCI-H596,0.449
9,NCI-H2228,1.07
10,EMC-BAC-2,0.239
11,NCI-H2085,0.635
12,HCC-366,0.122
13,NCI-H1666,0.918
14,NCI-H647,0.657
15,LK-2,0.165
16,NCI-H2126,0.512
17,NCI-H2342,0.471
18,SK-MES-1,0.873
19,H3255,0.458
20,COR-L23,0.352
21,IA-LM,0.577
22,HCC-44,1.21
23,SW 900,0.408
24,NCI-H1648,0.306
25,NCI-H727,0.873
26,NCI-H1395,0.509
27,NCI-H1793,0.353
28,NCI-H1944,0.334
29,ABC-1,0.571
30,NCI-H358,0.411

# Same assay, conditions: first compound 0.3162 µM
row,Cell Line,relative viability
1,NCI-H522,0.841
2,NCI-H838,0.538
3,NCI-H1650,0.229
4,NCI-H1993,0.718
5,NCI-H2087,0.524
6,PC-14,0.495
7,LCLC-103H,0.672
8,NCI-H596,0.591
9,NCI-H2228,0.272
10,EMC-BAC-2,0.153
11,NCI-H2085,0.75
12,HCC-366,0.0606
13,NCI-H1666,0.632
14,NCI-H647,0.181
15,LK-2,0.158
16,NCI-H2126,0.603

row,Cell Line,relative viability
1,NCI-H2342,0.421
2,SK-MES-1,0.806
3,H3255,0.278
4,COR-L23,0.214
5,IA-LM,0.826
6,NCI-H2170,0.755
7,HCC-44,1.02
8,SW 900,0.295
9,NCI-H1648,0.3
10,NCI-H727,1.12
11,NCI-H1395,0.54
12,NCI-H1793,0.427
13,NCI-H1944,0.282
14,ABC-1,0.55
15,NCI-H358,0.107

# Same assay, conditions: first compound 1 µM
row,Cell Line,relative viability
1,NCI-H522,0.834
2,NCI-H838,0.267
3,NCI-H1650,0.219
4,NCI-H1993,0.284
5,NCI-H2087,0.23
6,PC-14,0.234
7,LCLC-103H,0.575
8,NCI-H596,0.323
9,NCI-H2228,0.142
10,EMC-BAC-2,0.139
11,NCI-H2085,0.301
12,HCC-366,0.0304
13,NCI-H1666,0.549
14,NCI-H647,0.103
15,LK-2,0.149
16,NCI-H2126,0.227

row,Cell Line,relative viability
1,NCI-H2342,0.369
2,SK-MES-1,0.351
3,H3255,0.314
4,COR-L23,0.13
5,IA-LM,0.354
6,NCI-H2170,0.438
7,HCC-44,0.727
8,SW 900,0.167
9,NCI-H1648,0.329
10,NCI-H727,0.96
11,NCI-H1395,0.502
12,NCI-H1793,0.151
13,NCI-H1944,0.147
14,ABC-1,0.223
15,NCI-H358,0.0977

# Compound: COc1cc([C@@H]2c3cc4c(cc3[C@@H](O[C@@H]3O[C@@H]5CO[C@@H](C)O[C@H]5[C@H](O)[C@H]3O)[C@H]3COC(=O)[C@H]23)OCO4)cc(OC)c1O [Etoposide] + Cc1nc(Nc2ncc(C(=O)Nc3c(C)cccc3Cl)s2)cc(N2CCN(CCO)CC2)n1 [Dasatinib] (partner 0.075 µM)
# Experiment: as above
# Conditions: first compound 0.01 µM
# Procedure, shortened: as §1
row,Cell Line,relative viability
1,NCI-H522,0.861
2,NCI-H1623,0.68
3,NCI-H838,0.338
4,NCI-H1650,0.302
5,NCI-H1993,0.619
6,NCI-H2087,0.672
7,PC-14,0.266
8,LCLC-103H,0.466
9,NCI-H596,0.608
10,NCI-H2228,0.61
11,EMC-BAC-2,0.319
12,NCI-H2085,0.219
13,HCC-366,0.644
14,NCI-H1666,0.796
15,NCI-H647,0.157
16,LK-2,0.248

row,Cell Line,relative viability
1,NCI-H2126,0.668
2,NCI-H2342,0.317
3,SK-MES-1,0.315
4,H3255,0.424
5,COR-L23,0.398
6,NCI-H2170,0.678
7,SW 900,0.62
8,NCI-H727,0.4
9,NCI-H1395,0.422
10,NCI-H1792,0.699
11,NCI-H1793,0.402
12,NCI-H1563,0.416
13,NCI-H1944,0.213
14,ABC-1,0.535
15,NCI-H358,0.166

# Same assay, conditions: first compound 0.03162 µM
row,Cell Line,relative viability
1,NCI-H522,0.883
2,NCI-H1623,0.592
3,NCI-H838,0.295
4,NCI-H1650,0.381
5,NCI-H1993,0.712
6,NCI-H2087,1.06
7,PC-14,0.227
8,LCLC-103H,0.482
9,NCI-H596,0.657
10,NCI-H2228,0.473
11,EMC-BAC-2,0.333
12,NCI-H2085,0.241
13,HCC-366,0.774
14,NCI-H1666,0.802
15,NCI-H647,0.161
16,LK-2,0.297

row,Cell Line,relative viability
1,NCI-H2126,0.568
2,NCI-H2342,0.315
3,SK-MES-1,0.388
4,H3255,0.367
5,COR-L23,0.461
6,NCI-H2170,0.658
7,SW 900,0.659
8,NCI-H727,0.355
9,NCI-H1395,0.414
10,NCI-H1792,0.695
11,NCI-H1793,0.348
12,NCI-H1563,0.514
13,NCI-H1944,0.23
14,ABC-1,0.597
15,NCI-H358,0.179

# Same assay, conditions: first compound 0.1 µM
row,Cell Line,relative viability
1,NCI-H522,0.805
2,NCI-H1623,0.334
3,NCI-H838,0.219
4,NCI-H1650,0.315
5,NCI-H1993,0.478
6,NCI-H2087,0.653
7,PC-14,0.276
8,LCLC-103H,0.417
9,NCI-H596,0.543
10,NCI-H2228,0.306
11,EMC-BAC-2,0.193
12,NCI-H2085,0.226
13,HCC-366,0.36
14,NCI-H1666,0.594
15,NCI-H647,0.174
16,LK-2,0.275
17,NCI-H2126,0.434
18,NCI-H2342,0.3
19,SK-MES-1,0.429
20,H3255,0.345
21,COR-L23,0.428
22,NCI-H2170,0.353
23,SW 900,0.395
24,NCI-H1395,0.368
25,NCI-H1792,0.658
26,NCI-H1563,0.435
27,NCI-H1944,0.159
28,ABC-1,0.336
29,NCI-H358,0.112

# Same assay, conditions: first compound 0.3162 µM
row,Cell Line,relative viability
1,NCI-H522,0.895
2,NCI-H1623,0.267
3,NCI-H838,0.271
4,NCI-H1650,0.211
5,NCI-H1993,0.546
6,NCI-H2087,0.553
7,PC-14,0.217
8,LCLC-103H,0.546
9,NCI-H596,0.647
10,NCI-H2228,0.418
11,EMC-BAC-2,0.16
12,NCI-H2085,0.23
13,HCC-366,0.178
14,NCI-H1666,0.361
15,NCI-H647,0.145
16,LK-2,0.301

row,Cell Line,relative viability
1,NCI-H2126,0.485
2,NCI-H2342,0.229
3,SK-MES-1,0.286
4,H3255,0.306
5,COR-L23,0.26
6,NCI-H2170,0.619
7,SW 900,0.591
8,NCI-H727,0.37
9,NCI-H1395,0.406
10,NCI-H1792,0.72
11,NCI-H1793,0.419
12,NCI-H1563,0.387
13,NCI-H1944,0.189
14,ABC-1,0.248
15,NCI-H358,0.149

# Same assay, conditions: first compound 1 µM
row,Cell Line,relative viability
1,NCI-H522,0.874
2,NCI-H1623,0.294
3,NCI-H838,0.285
4,NCI-H1650,0.127
5,NCI-H1993,0.376
6,NCI-H2087,0.166
7,PC-14,0.151
8,LCLC-103H,0.42
9,NCI-H596,0.507
10,NCI-H2228,0.131
11,EMC-BAC-2,0.112
12,NCI-H2085,0.197
13,HCC-366,0.0448
14,NCI-H1666,0.293
15,NCI-H647,0.036
16,LK-2,0.181

row,Cell Line,relative viability
1,NCI-H2126,0.244
2,NCI-H2342,0.254
3,SK-MES-1,0.131
4,H3255,0.274
5,COR-L23,0.161
6,NCI-H2170,0.401
7,SW 900,0.147
8,NCI-H727,0.408
9,NCI-H1395,0.438
10,NCI-H1792,0.549
11,NCI-H1793,0.214
12,NCI-H1563,0.349
13,NCI-H1944,0.102
14,ABC-1,0.207
15,NCI-H358,0.106
